Assay results published in ChEMBL document CHEMBL5154832, “Design, Synthesis, and Proof-of-Concept of Triple-Site Inhibitors against Aminoacyl-tRNA Synthetases” (J Med Chem, 2022).
Values after ≈ are worked out from the molar mass of the structure shown.

Assays:
[1] = biological target: T1, Threonine--tRNA ligase (Salmonella enterica) (UniProt A0A3F3IEK2); experiment: Binding affinity to recombinant salmonella enterica threonyl-tRNA synthetase assessed as change in melting temperature at 0.1 mM by fluorescence-based thermal shift assay
T1 sequence (whole entry): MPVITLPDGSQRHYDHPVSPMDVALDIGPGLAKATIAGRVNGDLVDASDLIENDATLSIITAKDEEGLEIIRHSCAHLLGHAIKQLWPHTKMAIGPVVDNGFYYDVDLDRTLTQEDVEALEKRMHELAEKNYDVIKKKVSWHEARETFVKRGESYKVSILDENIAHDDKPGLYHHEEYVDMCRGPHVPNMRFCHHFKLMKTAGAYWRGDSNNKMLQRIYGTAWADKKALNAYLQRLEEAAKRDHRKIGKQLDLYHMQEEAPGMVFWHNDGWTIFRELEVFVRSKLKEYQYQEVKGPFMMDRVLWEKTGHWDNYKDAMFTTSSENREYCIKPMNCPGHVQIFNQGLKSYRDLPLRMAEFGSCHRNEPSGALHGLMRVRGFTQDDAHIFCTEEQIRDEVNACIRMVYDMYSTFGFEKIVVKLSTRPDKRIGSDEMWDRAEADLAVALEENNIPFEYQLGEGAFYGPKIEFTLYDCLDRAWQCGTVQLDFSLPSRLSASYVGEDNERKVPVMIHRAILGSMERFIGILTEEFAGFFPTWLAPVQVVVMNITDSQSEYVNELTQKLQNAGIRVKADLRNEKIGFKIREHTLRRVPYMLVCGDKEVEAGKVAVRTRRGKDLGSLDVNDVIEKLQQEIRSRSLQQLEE

Enterococcus faecalis = experiment: Antibacterial activity against Enterococcus faecalis ATCC 29212 strain assessed as inhibition of bacterial growth incubated for 8 hrs by CLSI protocol based microdilution assay; assay type: functional
Escherichia coli [2] = experiment: Antibacterial activity against Escherichia coli ATCC 25922 strain assessed as inhibition of bacterial growth incubated for 8 hrs by CLSI protocol based microdilution assay; assay type: functional
Pseudomonas aeruginosa = experiment: Antibacterial activity against Pseudomonas aeruginosa ATCC27853 strain assessed as inhibition of bacterial growth incubated for 8 hrs by CLSI protocol based microdilution assay; assay type: functional
Staphylococcus aureus [3] = experiment: Antibacterial activity against Staphylococcus aureus ATCC 29213 strain assessed as inhibition of bacterial growth incubated for 8 hrs by CLSI protocol based microdilution assay; assay type: functional
Escherichia coli [4] = experiment: Antibacterial activity against Escherichia coli acraB strain assessed as inhibition of bacterial growth incubated for 8 hrs by CLSI protocol based microdilution assay; assay type: functional
Threonine--tRNA ligase = biological target: T2, Threonine--tRNA ligase (Salmonella enterica, UniProt A0A3F3IEK2); experiment: Inhibition of recombinant salmonella enterica threonyl-tRNA synthetase assessed as reduction in enzyme activity incubated for 20 min by Kinase Glo luminescence assay
T2 sequence (A0A3F3IEK2 whole entry): T1 sequence (whole entry)

Staphylococcus aureus [5] = experiment: Antibacterial activity against Staphylococcus aureus MRSA R3708 strain assessed as inhibition of bacterial growth incubated for 8 hrs by CLSI protocol based microdilution assay; assay type: functional
[6] = biological target: T1, Threonine--tRNA ligase (Salmonella enterica); experiment: Inhibition of recombinant salmonella enterica threonyl-tRNA synthetase assessed as reduction in enzyme activity at 10 uM incubated for 20 min by Kinase Glo luminescence assay relative to control
Salmonella enterica = experiment: Antibacterial activity against Salmonella enterica 87 strain assessed as inhibition of bacterial growth incubated for 8 hrs by CLSI protocol based microdilution assay; assay type: functional

Compound | ΔTm [1] | MIC (Enterococcus faecalis) | MIC (Escherichia coli [2]) | MIC (Pseudomonas aeruginosa) | MIC (Staphylococcus aureus [3]) | MIC (Escherichia coli [4]) | IC50 (Threonine--tRNA ligase) | MIC (Staphylococcus aureus [5]) | inhibition [6] | MIC (Salmonella enterica)
C[C@@H](O)[C@H](N)C(=O)N[C@@H](CNC(=O)CCn1cnc2cc(Cl)c(Cl)cc2c1=O)c1cccc(-c2ccccc2)c1 | 23 °C | 32 µg/mL (≈ 54.9 µM) | ≥ 128 µg/mL | 16 µg/mL (≈ 27.5 µM) | 32 µg/mL (≈ 54.9 µM) | 16 µg/mL (≈ 27.5 µM) | 0.52 µM | 16 µg/mL (≈ 27.5 µM) | > 99% | ≥ 128 µg/mL
C[C@@H](O)[C@H](N)C(=O)N(CCCOC(=O)Cn1cnc2cc(Br)c(Cl)cc2c1=O)Cc1cccc(-c2ccc3c(c2)CNC3=O)c1 | 0 °C |  |  |  |  |  |  |  |  | 
CC1(C)S[C@@H]2[C@H](NC(=O)[C@H](N)c3ccccc3)C(=O)N2[C@H]1C(=O)O [AMPICILLIN] |  |  | 1 µg/mL (≈ 2.86 µM) | 1 µg/mL (≈ 2.86 µM) |  | 1 µg/mL (≈ 2.86 µM) |  |  |  | 1 µg/mL (≈ 2.86 µM)
C[C@@H](O)[C@H](N)C(=O)N[C@@H](CNC(=O)CCn1cnc2cc(Br)c(Cl)cc2c1=O)c1cccc(-c2ccc3[nH]ccc3c2)c1 | 22.6 °C | 32 µg/mL (≈ 48 µM) | ≥ 128 µg/mL | 32 µg/mL (≈ 48 µM) | 32 µg/mL (≈ 48 µM) | 16 µg/mL (≈ 24 µM) | 1.62 µM | 32 µg/mL (≈ 48 µM) | 91% | ≥ 128 µg/mL
C[C@@H](O)[C@H](N)C(=O)N(CCC(=O)NCCn1cnc2cc(Br)c(Cl)cc2c1=O)Cc1cccc(-c2ccc3c(c2)CNC3=O)c1 | 25.4 °C | 64 µg/mL (≈ 92 µM) | ≥ 128 µg/mL | 64 µg/mL (≈ 92 µM) | ≥ 128 µg/mL | 64 µg/mL (≈ 92 µM) | 5.07 µM | ≥ 128 µg/mL | 80% | ≥ 128 µg/mL
C[C@@H](O)[C@H](N)C(=O)N[C@H](CNC(=O)CCn1cnc2cc(Br)c(Cl)cc2c1=O)c1cccc(-c2ccc3[nH]ccc3c2)c1 | 8.4 °C |  |  |  |  |  |  |  | 24% | 
C[C@@H](O)[C@H](N)C(=O)N[C@H](CNC(=O)CCn1cnc2cc(Cl)c(Cl)cc2c1=O)c1cccc(-c2ccccc2)c1 | 5 °C |  |  |  |  |  |  |  |  | 
C[C@@H](O)[C@H](N)C(=O)N[C@H](CNC(=O)CCn1cnc2cc(Br)c(Cl)cc2c1=O)c1cccc(-c2ccc3c(c2)CNC3=O)c1 | 17.9 °C |  |  |  |  |  | 1.86 µM |  | 86% | 
C[C@@H](O)[C@H](N)C(=O)N(CCCC(=O)NCCn1cnc2cc(Br)c(Cl)cc2c1=O)Cc1cccc(-c2ccc3c(c2)CNC3=O)c1 | 27.8 °C | 64 µg/mL (≈ 90.1 µM) | ≥ 128 µg/mL | 64 µg/mL (≈ 90.1 µM) | ≥ 128 µg/mL | 64 µg/mL (≈ 90.1 µM) | 2.99 µM | ≥ 128 µg/mL | 84% | ≥ 128 µg/mL
C[C@@H](O)[C@H](N)C(=O)N[C@@H](CNC(=O)CCn1cnc2cc(Br)c(Cl)cc2c1=O)c1cccc(-c2ccccc2)c1 | 20.1 °C | 32 µg/mL (≈ 51 µM) | ≥ 128 µg/mL | 16 µg/mL (≈ 25.5 µM) | 32 µg/mL (≈ 51 µM) | 32 µg/mL (≈ 51 µM) | 3.71 µM | 32 µg/mL (≈ 51 µM) | 82% | ≥ 128 µg/mL
C[C@@H](O)[C@H](N)C(=O)NS(=O)(=O)c1cccc(-c2ccc3[nH]ncc3c2)c1 | 29.9 °C | ≥ 128 µg/mL | ≥ 128 µg/mL | ≥ 128 µg/mL | ≥ 128 µg/mL | ≥ 128 µg/mL | 0.19 µM | ≥ 128 µg/mL | > 99% | ≥ 128 µg/mL
C[C@@H](O)[C@H](N)C(=O)N[C@H](CNC(=O)CCn1cnc2cc(Br)c(Cl)cc2c1=O)c1cccc(-c2ccc3c(N)ncnc3c2)c1 | 29.4 °C |  |  |  |  |  | 6.63 µM |  | 57% | 
C[C@@H](O)[C@H](N)C(=O)N(CCCCOC(=O)Cn1cnc2cc(Br)c(Cl)cc2c1=O)Cc1cccc(-c2ccc3c(c2)CNC3=O)c1 | 0 °C |  |  |  |  |  |  |  |  | 
C[C@@H](O)[C@H](N)C(=O)N[C@H](CNC(=O)CCn1cnc2cc(Cl)c(F)cc2c1=O)c1cccc(-c2ccccc2)c1 | 12.1 °C |  |  |  |  |  |  |  | 11% | 
C[C@@H](O)[C@H](N)C(=O)N[C@@H](CNC(=O)CCn1cnc2cc(Cl)c(F)cc2c1=O)c1cccc(-c2ccccc2)c1 | 22.6 °C | 32 µg/mL (≈ 56.5 µM) | ≥ 128 µg/mL | 16 µg/mL (≈ 28.3 µM) | 16 µg/mL (≈ 28.3 µM) | 32 µg/mL (≈ 56.5 µM) | 0.55 µM | 32 µg/mL (≈ 56.5 µM) | > 99% | ≥ 128 µg/mL
C[C@@H](O)[C@H](N)C(=O)N(CCC(=O)N1CCN(CCn2cnc3cc(Br)c(Cl)cc3c2=O)CC1)Cc1cccc(-c2ccc3c(c2)CNC3=O)c1 | 0 °C |  |  |  |  |  |  |  |  | 
CN[C@H](C(=O)N[C@@H](CNC(=O)CCn1cnc2cc(Cl)c(F)cc2c1=O)c1cccc(-c2ccccc2)c1)[C@@H](C)O | 22.1 °C | 32 µg/mL (≈ 55.2 µM) | ≥ 128 µg/mL | 16 µg/mL (≈ 27.6 µM) | 32 µg/mL (≈ 55.2 µM) | 16 µg/mL (≈ 27.6 µM) | 2.1 µM | 32 µg/mL (≈ 55.2 µM) | 73% | ≥ 128 µg/mL
C[C@@H](O)[C@H](N)C(=O)N[C@@H](CNC(=O)CCn1cnc2cc(Br)c(Cl)cc2c1=O)c1cccc(-c2ccc3ccccc3c2)c1 | 20.2 °C | 4 µg/mL (≈ 5.91 µM) | ≥ 128 µg/mL | 4 µg/mL (≈ 5.91 µM) | 4 µg/mL (≈ 5.91 µM) | 8 µg/mL (≈ 11.8 µM) | 2.1 µM | 4 µg/mL (≈ 5.91 µM) | 85% | ≥ 128 µg/mL
C[C@@H](O)[C@H](N)C(=O)N[C@@H](CNC(=O)CCn1cnc2cc(Cl)c(Cl)cc2c1=O)c1cccc(-c2ccc(C(F)(F)F)cc2)c1 | 25.9 °C | 4 µg/mL (≈ 6.15 µM) | ≥ 128 µg/mL | 4 µg/mL (≈ 6.15 µM) | 2 µg/mL (≈ 3.07 µM) | 8 µg/mL (≈ 12.3 µM) | 0.58 µM | 4 µg/mL (≈ 6.15 µM) | > 99% | ≥ 128 µg/mL
CN[C@H](CC(C)C)C(=O)N[C@H]1C(=O)N[C@@H](CC(N)=O)C(=O)N[C@H]2C(=O)N[C@H]3C(=O)N[C@H](C(=O)N[C@H](C(=O)O)c4cc(O)cc(O)c4-c4cc3ccc4O)[C@H](O)c3ccc(c(Cl)c3)Oc3cc2cc(c3O[C@@H]2O[C@H](CO)[C@@H](O)[C@H](O)[C@H]2O[C@H]2C[C@](C)(N)[C@H](O)[C@H](C)O2)Oc2ccc(cc2Cl)[C@H]1O [VANCOMYCIN] |  | 2 µg/mL (≈ 1.38 µM) |  |  |  |  |  |  |  | 
C[C@@H](O)[C@H](N)C(=O)N[C@H](CNC(=O)CCn1cnc2cc(Br)c(Cl)cc2c1=O)c1cccc(-c2ccccc2)c1 | 7 °C |  |  |  |  |  |  |  | 8% | 
C[C@@H](O)[C@@H](N)C(=O)N(CCCCCn1cnc2cc(Br)c(Cl)cc2c1=O)S(=O)(=O)c1cccc(-c2ccc3c(c2)CNC3=O)c1 | 6.2 °C |  |  |  |  |  |  |  | 16% | 
C[C@@H](O)[C@H](N)C(=O)N[C@H](CNC(=O)CCn1cnc2cc(Br)c(Cl)cc2c1=O)c1cccc(-c2ccc3ccccc3c2)c1 | 4.8 °C |  |  |  |  |  |  |  |  | 
C[C@@H](O)[C@H](N)C(=O)N[C@@H](CNC(=O)CCn1cnc2cc(Br)c(Cl)cc2c1=O)c1cccc(-c2ccc3c(N)ncnc3c2)c1 | 35.2 °C | ≥ 128 µg/mL | ≥ 128 µg/mL | ≥ 128 µg/mL | ≥ 128 µg/mL | ≥ 128 µg/mL | 0.48 µM | ≥ 128 µg/mL | > 99% | ≥ 128 µg/mL
C[C@@H](O)[C@H](N)C(=O)N[C@H](CNC(=O)CCn1cnc2cc(Br)c(Cl)cc2c1=O)c1cccc(-c2ccc3[nH]ncc3c2)c1 | 10.2 °C |  |  |  |  |  |  |  | 30% | 
CN[C@H](C(=O)N[C@H](CNC(=O)CCn1cnc2cc(Cl)c(F)cc2c1=O)c1cccc(-c2ccccc2)c1)[C@@H](C)O | 7.2 °C |  |  |  |  |  |  |  | 5% | 
